The text below walks through data of article PMC8698333 (Biomedicines, 2021).

No end group written: not given here.

In assay [1] the target is T1, hKOR (β-arrestin recruitment) (Homo sapiens, UniProt P41145).
T1 construct: tTA (Tango cassette); expressed in transfected cells; host or cells: HEK293, transient
Nature of the assay: PRESTO-Tango β-arrestin recruitment assay. The format is cell-based. The note with it: SEM. In general terms: Recruitment of arrestin is a read-out of receptor activation apart from second messengers.

Another assay has as its target T2, hKOR with Gα3 subunit (Homo sapiens, UniProt P41145).
T2 construct: alpha7 nicotinic receptor signal peptide (N); expressed in transfected cells; host or cells: HEK293, transient
Nature of the assay: TRUPATH (BRET) G-protein dissociation, Gα3 subunit. The class given is cell-based. To be noted: mean ± SEM.

For a further assay, the target named is T3, hKOR with GαoB subunit (Homo sapiens, UniProt P41145).
T3 construct: alpha7 nicotinic receptor signal peptide (N); expressed in transfected cells; host or cells: HEK293, transient
Kind of assay: TRUPATH (BRET) G-protein dissociation, GαoB subunit. The format is cell-based. To be noted: SEM.

The next assay deals with hKOR with GαoA subunit (Homo sapiens, UniProt P41145). Nature of the assay: cell-based. The note with it: SEM.
The target of a further assay is T4, hKOR with Gα2 subunit (Homo sapiens, UniProt P41145).
T4 construct: alpha7 nicotinic receptor signal peptide (N); expressed in transfected cells; host or cells: HEK293, transient
Kind of assay: TRUPATH (BRET) G-protein dissociation, Gα2 subunit. The class given is cell-based. The note with it: SEM. On the technique in general: BRET reads energy transfer from a luciferase to a nearby fluorophore.

Another assay deals with T5, hKOR with GαZ subunit (Homo sapiens, UniProt P41145).
T5 construct: alpha7 nicotinic receptor signal peptide (N); expressed in transfected cells; host or cells: HEK293, transient
Kind of assay: TRUPATH (BRET) G-protein dissociation, GαZ subunit. The class given is cell-based. To be noted: SEM.

The target of another assay is T6, hKOR with Gα1 subunit (Homo sapiens, UniProt P41145).
T6 construct: alpha7 nicotinic receptor signal peptide (N); expressed in transfected cells; host or cells: HEK293, transient
Kind of assay: TRUPATH (BRET) G-protein dissociation, Gα1 subunit. To be noted: SEM. The format is cell-based.

Assay [2] concerns the target T7, human KOR receptors (hKOR) (Homo sapiens, UniProt P41145).
T7 construct: expressed in transfected cells
Kind of assay: [35S]GTPγS functional assay on hKOR-CHO cell membranes. To be noted: SEM. The format is biochemical. A general note: GTPγS is a poorly hydrolysed GTP analogue; its binding reports G protein activation.
Protocol: CHO cells stably transfected with human KOR receptors (hKOR-CHO) were courtesy of Prof. Liu-Chen (Temple University, Philadelphia, PA, USA). Cells were grown in Gibco™ Dulbecco’s Minimal Essential Medium (DMEM) supplemented with 10% FBS, Glutamax (100 μg/mL), penicillin/ streptomycin (100 μg/mL) and geneticin (G418, 400 μg/mL). […] Cell cultures were maintained in a Heracell™ 150i CO2 incubator at 37 °C and 5.0% CO2.
Functional assays were conducted on hKOR-CHO cell membranes. Membranes were prepared in 50 mM Tris-HCl buffer pH 7.7. Cells were harvested by scraping the plates with a rubber policeman and were then centrifuged at 500× g for 10 min. The cell pellet was resuspended in Tris-HCl, homogenized with a Dounce homogenizer and centrifuged at 27,000× g for 15 min. […] The protein concentration of the homogenate was determined by Biuret reaction (RotiQuant Universal, Carl Roth) and stored at −70 °C until use.
To perform the GTPγS assay, membrane homogenates (10 μg/reaction tube) were diluted in HEPES buffer (20 mM) together with 10 μM GDP and 0.05 nM [^35S]GTPγS (Perkin Elmer, MA, USA). […] Non-specific binding was determined using 10 μM unlabeled GTPγS (Sigma-Aldrich, Vienna, Austria). Samples were filtered over glass fiber filters (GF/B Whatman) and the bound radioactivity was measured by liquid scintillation counting as counts per minute (CPM).

Setting [3] is: EC50, TRUPATH α3 (#, same cell batch), HEK293 with hKOR and Gα3, signal bias series marked #, performed on the same cell batch, n = 9.

Broadly, the EC50 is the concentration that produces a half-maximal response. Low readings indicate a more potent agent, high ones a less potent agent.

T1 sequence (P41145 whole entry): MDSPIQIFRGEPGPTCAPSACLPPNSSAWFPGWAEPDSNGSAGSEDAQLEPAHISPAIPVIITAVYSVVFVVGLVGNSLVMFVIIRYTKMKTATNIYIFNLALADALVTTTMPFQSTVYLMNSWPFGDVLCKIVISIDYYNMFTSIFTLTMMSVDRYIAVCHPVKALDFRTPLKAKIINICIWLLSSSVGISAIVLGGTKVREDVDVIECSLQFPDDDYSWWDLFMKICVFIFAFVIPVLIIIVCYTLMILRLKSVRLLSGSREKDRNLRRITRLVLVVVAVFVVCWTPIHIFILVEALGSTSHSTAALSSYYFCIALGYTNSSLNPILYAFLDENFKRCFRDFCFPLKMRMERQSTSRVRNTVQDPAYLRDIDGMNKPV
T1 sequence (P32121 whole entry partner): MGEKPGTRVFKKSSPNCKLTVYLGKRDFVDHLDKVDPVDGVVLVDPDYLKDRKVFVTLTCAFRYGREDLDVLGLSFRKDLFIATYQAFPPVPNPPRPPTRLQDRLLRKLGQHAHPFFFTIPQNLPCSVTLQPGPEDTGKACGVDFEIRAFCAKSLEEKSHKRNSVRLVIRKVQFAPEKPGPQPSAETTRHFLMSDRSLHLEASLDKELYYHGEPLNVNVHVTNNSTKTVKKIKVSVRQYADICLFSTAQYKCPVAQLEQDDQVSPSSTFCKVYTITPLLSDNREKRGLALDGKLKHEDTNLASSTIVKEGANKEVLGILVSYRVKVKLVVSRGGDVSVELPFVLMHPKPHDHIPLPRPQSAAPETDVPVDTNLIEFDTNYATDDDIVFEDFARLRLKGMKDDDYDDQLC
T2 sequence (P41145 whole entry): as the sequence (P41145 whole entry) above
T2 sequence (P08754 whole entry partner): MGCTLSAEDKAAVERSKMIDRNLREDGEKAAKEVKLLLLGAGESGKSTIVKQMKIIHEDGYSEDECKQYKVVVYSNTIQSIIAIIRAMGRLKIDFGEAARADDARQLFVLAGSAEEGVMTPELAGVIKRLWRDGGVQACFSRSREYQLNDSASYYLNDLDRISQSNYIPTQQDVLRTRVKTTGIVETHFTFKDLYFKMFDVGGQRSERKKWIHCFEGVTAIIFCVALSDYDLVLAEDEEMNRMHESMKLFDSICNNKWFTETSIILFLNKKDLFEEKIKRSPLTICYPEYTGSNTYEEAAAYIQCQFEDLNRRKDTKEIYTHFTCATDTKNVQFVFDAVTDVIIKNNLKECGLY
T2 sequence (P16520 whole entry partner): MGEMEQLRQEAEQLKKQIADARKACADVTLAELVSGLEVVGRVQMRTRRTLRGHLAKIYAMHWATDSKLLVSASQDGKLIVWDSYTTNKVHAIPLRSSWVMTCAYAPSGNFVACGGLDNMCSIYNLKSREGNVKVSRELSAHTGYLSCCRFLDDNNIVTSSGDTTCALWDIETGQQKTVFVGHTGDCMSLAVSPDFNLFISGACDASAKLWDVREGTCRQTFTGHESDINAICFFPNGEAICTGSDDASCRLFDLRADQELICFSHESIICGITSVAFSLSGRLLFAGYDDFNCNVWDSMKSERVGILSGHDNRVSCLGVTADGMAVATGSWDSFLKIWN
T2 sequence (O14610 1-66 partner limits assumed): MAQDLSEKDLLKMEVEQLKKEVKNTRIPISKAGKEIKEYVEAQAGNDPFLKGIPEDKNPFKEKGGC
Sequence of hKOR with GαoA subunit (P16520 whole entry): as the sequence (P16520 whole entry partner) above
Sequence of hKOR with GαoA subunit (P41145 whole entry): as the sequence (P41145 whole entry) above
Sequence of hKOR with GαoA subunit (P09471 whole entry, further chain): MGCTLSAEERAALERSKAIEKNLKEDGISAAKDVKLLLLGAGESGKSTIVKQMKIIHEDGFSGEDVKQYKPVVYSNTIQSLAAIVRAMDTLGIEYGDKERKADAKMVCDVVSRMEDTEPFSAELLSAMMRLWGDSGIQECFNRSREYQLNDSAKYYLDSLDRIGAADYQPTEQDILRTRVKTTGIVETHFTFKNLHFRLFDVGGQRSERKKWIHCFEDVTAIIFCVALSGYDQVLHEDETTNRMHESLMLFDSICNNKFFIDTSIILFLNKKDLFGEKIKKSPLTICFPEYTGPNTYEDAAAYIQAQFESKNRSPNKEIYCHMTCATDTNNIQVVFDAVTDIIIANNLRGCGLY
Sequence of hKOR with GαoA subunit (Q9UK08 1-67, further chain): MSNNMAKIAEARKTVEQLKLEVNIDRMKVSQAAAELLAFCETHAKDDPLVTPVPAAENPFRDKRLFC
T6 sequence (P16520 whole entry): as the sequence (P16520 whole entry partner) above
T6 sequence (P63096 whole entry, further chain): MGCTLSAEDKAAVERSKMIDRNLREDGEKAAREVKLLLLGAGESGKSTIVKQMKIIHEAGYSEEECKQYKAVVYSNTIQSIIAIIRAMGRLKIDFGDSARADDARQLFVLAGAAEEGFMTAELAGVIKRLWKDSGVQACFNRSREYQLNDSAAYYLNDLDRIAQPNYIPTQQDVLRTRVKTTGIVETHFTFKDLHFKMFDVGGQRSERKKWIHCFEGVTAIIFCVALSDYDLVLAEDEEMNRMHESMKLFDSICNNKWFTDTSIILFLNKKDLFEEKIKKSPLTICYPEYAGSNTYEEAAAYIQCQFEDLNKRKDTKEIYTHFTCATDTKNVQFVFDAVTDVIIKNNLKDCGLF
T6 sequence (P41145 whole entry): as the sequence (P41145 whole entry) above
T6 sequence (O14610 1-66, further chain): as the sequence (O14610 1-66 partner limits assumed) above
T5 sequence (P41145 whole entry): as the sequence (P41145 whole entry) above
T5 sequence (P19086 whole entry partner): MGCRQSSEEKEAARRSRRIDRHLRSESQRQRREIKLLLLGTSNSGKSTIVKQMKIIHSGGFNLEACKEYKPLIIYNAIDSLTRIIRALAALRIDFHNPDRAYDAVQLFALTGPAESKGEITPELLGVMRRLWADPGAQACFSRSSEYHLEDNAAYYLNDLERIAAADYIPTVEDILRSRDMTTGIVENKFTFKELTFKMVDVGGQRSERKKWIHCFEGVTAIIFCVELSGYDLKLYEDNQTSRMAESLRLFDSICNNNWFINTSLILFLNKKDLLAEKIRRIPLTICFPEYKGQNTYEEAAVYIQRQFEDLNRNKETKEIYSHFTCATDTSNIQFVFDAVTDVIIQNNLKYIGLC
T5 sequence (P16520 whole entry partner): as the sequence (P16520 whole entry partner) above
T5 sequence (P63211 1-71 partner limits assumed): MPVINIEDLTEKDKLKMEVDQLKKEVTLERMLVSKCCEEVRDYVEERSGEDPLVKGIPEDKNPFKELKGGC
T4 sequence (P41145 whole entry): as the sequence (P41145 whole entry) above
T4 sequence (P04899 whole entry partner): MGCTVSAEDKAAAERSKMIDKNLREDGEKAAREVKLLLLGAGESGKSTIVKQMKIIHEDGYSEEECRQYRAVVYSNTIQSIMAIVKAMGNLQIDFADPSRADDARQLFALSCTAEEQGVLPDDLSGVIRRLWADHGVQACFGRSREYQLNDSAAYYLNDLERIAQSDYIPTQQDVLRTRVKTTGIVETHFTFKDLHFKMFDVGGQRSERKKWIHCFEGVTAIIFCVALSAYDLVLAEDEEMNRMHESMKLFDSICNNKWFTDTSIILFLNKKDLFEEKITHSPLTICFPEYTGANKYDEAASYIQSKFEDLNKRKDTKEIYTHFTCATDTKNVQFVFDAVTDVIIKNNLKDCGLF
T4 sequence (P16520 whole entry partner): as the sequence (P16520 whole entry partner) above
T4 sequence (Q9UK08 1-67 partner limits assumed): as the sequence (Q9UK08 1-67, further chain) above
T3 sequence (P41145 whole entry): as the sequence (P41145 whole entry) above
T3 sequence (P09471 1-354 isoform P09471-2 partner): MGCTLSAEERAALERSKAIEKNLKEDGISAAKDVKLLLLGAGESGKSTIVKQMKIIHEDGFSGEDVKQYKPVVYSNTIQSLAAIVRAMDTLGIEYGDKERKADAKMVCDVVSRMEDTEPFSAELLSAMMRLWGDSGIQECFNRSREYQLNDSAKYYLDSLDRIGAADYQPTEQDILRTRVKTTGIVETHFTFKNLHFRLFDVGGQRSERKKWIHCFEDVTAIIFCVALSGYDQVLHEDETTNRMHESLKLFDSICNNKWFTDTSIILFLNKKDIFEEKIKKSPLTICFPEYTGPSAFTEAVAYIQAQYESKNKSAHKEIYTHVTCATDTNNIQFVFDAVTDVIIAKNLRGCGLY
T3 sequence (P16520 whole entry partner): as the sequence (P16520 whole entry partner) above
T3 sequence (Q9UK08 1-67 partner limits assumed): as the sequence (Q9UK08 1-67, further chain) above
T7 sequence (P41145 whole entry): as the sequence (P41145 whole entry) above

For the sequence YGGFLRRICPKLKWDNQ [DynA_R9C], the results for the EC50 (in assay [1]; at hKOR with Gα3 subunit (setting [3])) were 88 ± 32 nM and 24 ± 9 nM, respectively.

Turning to YGGFLWRIRPKLKWDNQ [DynA_R6W], the EC50 came out at 670 ± 215 nM in assay [1]; 62 ± 15 nM at hKOR with GαoB subunit; 133 ± 75 nM at hKOR with Gα3 subunit (setting [3]); 161 ± 51 nM on hKOR with Gα3 subunit (EC50, TRUPATH α3, HEK293 transiently transfected with hKOR and Gα3, 30 min, n = 6 (transducerome series)); 133 ± 80 nM on hKOR with GαoA subunit; 78 ± 42 nM at hKOR with Gα2 subunit. Besides, the figures for the EC50 (at hKOR with GαZ subunit; on hKOR with Gα1 subunit; in assay [2]) were 27 ± 9 nM, 211 ± 36 nM and 105 ± 23 nM, respectively.

In the case of YGGFSRRIRPKLKWDNQ [DynA_L5S], the results for the EC50 (in assay [1]; on hKOR with Gα3 subunit (setting [3])) were 236 ± 65 nM and 78 ± 37 nM, respectively.
